How the values were obtained:
Assay type in all cases: cell-based, mouse
BaF3-ETV6-NTRK3 = target: T1, BaF3-ETV6-NTRK3 (Homo sapiens, UniProt Q16288); experiment: Cell proliferation inhibition (CCK-8), BaF3-ETV6-NTRK3 stable strain; conditions: BaF3-ETV6-NTRK3, 72 hours
T1 construct: fused on or other part: P41212 (Transcription factor ETV6)
Protocol: (§1) The brief steps of stable strain construction are as follows: construct a pCDNA3.1(+) plasmid vector carrying genes such as CD74-NTRK1, ETV6-NTRK2 and ETV6-NTRK3; the plasmid was electroporated into Ba/F3 cells using the Amaxa® Cell Line Nucleofector® Kit V; 48 hours after electroporated, G418 with a final concentration of 1000 μg/ml was added for screening for two weeks, and then IL3 was removed, and continued screening to obtain polyclonal stable strains; then single clones were selected by a limiting dilution method. The stable strains were then identified using positive drugs, WB and gene sequencing; and the monoclonal clones that were identified as completely correct may be used for the study of cell proliferation inhibitory activity of inhibitors.
(§2) Cell proliferation inhibition activity study: the cells in the logarithmic growth phase were seeded into 96-well plates at 8000-12000 cells/well, and inhibitors at different concentrations (0-10 μM) were added the next day, and incubation was continued for 72 hours; then 10 μL of CCK-8 reagent was added to each well, and the incubation was continued for 1-3 hours; and then use a super microplate reader to measure their absorbance values at 450 nm and 650 nm. The half-inhibition concentration (IC50) was calculated using GraphPad Prism 8.0.0.

BaF3-ETV6-NTRK2 = target: T2, BaF3-ETV6-NTRK2 (Homo sapiens, UniProt Q16620); experiment: Cell proliferation inhibition (CCK-8), BaF3-ETV6-NTRK2 stable strain; conditions: BaF3-ETV6-NTRK2, 72 hours
T2 construct: fused on or other part: P41212 (Transcription factor ETV6)
T2 sequence (Q16620 538-822 limits assumed): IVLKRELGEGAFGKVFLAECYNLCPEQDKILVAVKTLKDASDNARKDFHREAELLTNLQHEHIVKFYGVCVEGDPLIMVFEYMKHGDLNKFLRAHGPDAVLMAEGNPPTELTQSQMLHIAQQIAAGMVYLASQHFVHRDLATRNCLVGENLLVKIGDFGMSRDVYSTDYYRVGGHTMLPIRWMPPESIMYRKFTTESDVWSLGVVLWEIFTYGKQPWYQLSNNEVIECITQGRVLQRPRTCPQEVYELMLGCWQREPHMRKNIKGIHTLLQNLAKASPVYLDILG
Protocol: as §1, §2

BaF3-CD74-NTRK1 = target: T3, BaF3-CD74-NTRK1 (Homo sapiens, UniProt P04629); experiment: Cell proliferation inhibition (CCK-8), BaF3-CD74-NTRK1 stable strain; conditions: BaF3-CD74-NTRK1, 72 hours
T3 construct: fused on or other part: P04233 (HLA class II histocompatibility antigen gamma chain)
T3 sequence (P04629 510-796 limits assumed): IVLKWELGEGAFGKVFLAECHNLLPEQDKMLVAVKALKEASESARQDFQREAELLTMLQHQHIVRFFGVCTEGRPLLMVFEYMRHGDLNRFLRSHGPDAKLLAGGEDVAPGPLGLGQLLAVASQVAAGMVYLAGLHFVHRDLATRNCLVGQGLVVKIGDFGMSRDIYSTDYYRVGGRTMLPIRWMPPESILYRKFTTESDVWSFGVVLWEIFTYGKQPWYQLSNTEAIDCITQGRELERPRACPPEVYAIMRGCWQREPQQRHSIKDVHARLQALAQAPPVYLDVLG
Protocol: as §1, §2

T1 sequence (Q16288 whole entry, the tested form may be a part): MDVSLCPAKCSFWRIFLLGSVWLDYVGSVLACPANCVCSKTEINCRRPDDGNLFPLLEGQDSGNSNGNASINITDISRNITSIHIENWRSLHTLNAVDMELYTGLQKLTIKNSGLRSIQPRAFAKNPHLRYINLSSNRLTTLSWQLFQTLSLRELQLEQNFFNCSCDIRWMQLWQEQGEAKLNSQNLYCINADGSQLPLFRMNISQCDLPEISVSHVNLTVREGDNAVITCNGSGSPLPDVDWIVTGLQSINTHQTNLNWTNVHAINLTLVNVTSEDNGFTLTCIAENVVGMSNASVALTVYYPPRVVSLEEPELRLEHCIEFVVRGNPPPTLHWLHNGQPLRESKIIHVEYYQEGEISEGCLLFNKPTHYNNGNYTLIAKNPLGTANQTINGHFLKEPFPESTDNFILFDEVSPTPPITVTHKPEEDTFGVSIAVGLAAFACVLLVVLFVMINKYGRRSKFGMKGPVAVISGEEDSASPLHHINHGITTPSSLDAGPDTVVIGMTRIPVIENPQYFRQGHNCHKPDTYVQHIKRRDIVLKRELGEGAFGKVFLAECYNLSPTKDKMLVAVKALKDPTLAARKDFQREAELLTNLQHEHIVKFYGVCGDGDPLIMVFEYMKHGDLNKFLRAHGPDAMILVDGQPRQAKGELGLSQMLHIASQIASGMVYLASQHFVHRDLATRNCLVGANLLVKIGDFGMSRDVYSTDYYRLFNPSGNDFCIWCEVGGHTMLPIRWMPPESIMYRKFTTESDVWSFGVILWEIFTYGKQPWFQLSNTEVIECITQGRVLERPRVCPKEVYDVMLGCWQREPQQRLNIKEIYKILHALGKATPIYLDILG

Row | Compound | IC50 (BaF3-ETV6-NTRK3) [nM] | IC50 (BaF3-ETV6-NTRK2) [nM] | IC50 (BaF3-CD74-NTRK1) [nM]
1 | NC(=O)/C=C/c1n[nH]c2ccc(NCc3cc(F)cc(F)c3)cc12 [DYX-223, (E)-3-(5-((3,5-difluorobenzyl)amino)-1H-indazol-3-yl)acrylamide] | 35.6 | 24.3 | 37.7
2 | CCn1cc(/C=C/c2n[nH]c3ccc(N[C@H](C)c4cc(F)cc(F)c4)cc23)cn1 [DYX-349, (R,E)-N-(1-(3,5-difluorophenyl)ethyl)-3-(2-(1-ethyl-1H-pyrazol-4-yl)vinyl)-1H-indazol-5-amine] | 4.3 | 10.7 | 7.4
3 | O=S(=O)(Nc1ccc2[nH]nc(/C=C/c3cnn(C(F)F)c3)c2c1)c1cc(F)cc(F)c1 [CHW-11] | 111 | 103 | 53.8
4 | Cc1ccccc1/C=C/c1n[nH]c2ccc(Cc3cc(F)cc(F)c3)cc12 [Example D01F08, (E)-5-(3,5-difluorobenzyl)-3-(2-methylstyryl)-1H-indazole] | 158 | 400 | 112
5 | COCCn1cc(/C=C/c2n[nH]c3ccc(NS(=O)(=O)c4cc(F)cc(F)c4)cc23)cn1 [CHW-13] | 41.3 | 52.3 | 40.2
6 | O=S(=O)(c1cc(F)cc(F)c1)c1ccc2[nH]nc(/C=C/c3ccccc3F)c2c1 [Example E01F10, (E)-5-((3,5-difluorophenyl)sulfonyl)-3-(2-fluorostyryl)-1H-indazole] | 156 | 610 | 68.9
7 | O=S(=O)(Nc1ccc2[nH]nc(/C=C/c3ccccn3)c2c1)c1cncc(F)c1 [CHW-9, (E)-5-fluoro-N-(3-(2-(pyridin-2-yl)vinyl)-1H-indazol-5-yl)pyridine-3-sulfonamide] | 121 | 134 | 60.8
8 | C[C@@H](Nc1ccc2[nH]nc(/C=C/c3ccccn3)c2c1)c1cccc(F)c1 [DYX-320, (R,E)-N-(1-(3-fluorophenyl)ethyl)-3-(2-(pyridin-2-yl)vinyl)-1H-indazol-5-amine] | 10.4 | 32.4 | 37.6
9 | C[C@@H](Nc1ccc2[nH]nc(/C=C/c3cccnc3)c2c1)c1cc(F)cc(F)c1 [DYX-409, (R,E)-N-(1-(3,5-difluorophenyl)ethyl)-3-(2-(pyridin-3-yl)vinyl)-1H-indazol-5-amine] | 7.7 | 36.9 | 6.4
10 | COc1ccc(F)cc1CNc1ccc2[nH]nc(/C=C/c3ccccn3)c2c1 [DYX-418, (E)-N-(5-fluoro-2-methoxybenzyl)-3-(2-(pyridin-2-yl)vinyl)-1H-indazol-5-amine] | 16.2 | 41 | 7.6
11 | CC(=O)n1cc(/C=C/c2n[nH]c3ccc(NS(=O)(=O)c4cc(F)cc(F)c4)cc23)cn1 [CHW-2, (E)-N-(3-(2-(1-acetyl-1H-pyrazol-4-yl)vinyl)-1H-indazol-5-yl)-3,5-difluorobenzenesulfonamide] | 127 | 185 | 107
12 | Cc1ccccc1/C=C/c1n[nH]c2ccc(S(=O)(=O)c3cc(F)cc(F)c3)cc12 [Example E01F08, (E)-5-((3,5-difluorophenyl)sulfonyl)-3-(2-methylstyryl)-1H-indazole] | 82.9 | 220 | 43.8
13 | Clc1cc(Cl)cc(Cc2ccc3[nH]nc(/C=C/c4ccccn4)c3c2)c1 [Example D06F01, (E)-5-(3,5-dichlorobenzyl)-3-(2-(pyridin-2-yl)vinyl)-1H-indazole] | 851 | > 10000 | 564
14 | CC(C)n1cc(/C=C/c2n[nH]c3ccc(NS(=O)(=O)c4cc(F)cc(F)c4)cc23)cn1 [CHW-7, (E)-3,5-difluoro-N-(3-(2-(1-isopropyl-1H-pyrazol-4-yl)vinyl)-1H-indazol-5-yl)benzenesulfonamide] | 40.9 | 57.8 | 33.4
15 | O=S(=O)(Nc1ccc2[nH]nc(/C=C/c3cnn(C4CC4)c3)c2c1)c1cc(F)cc(F)c1 [CHW-4] | 7 | 8.2 | 3.1
16 | Cn1cc(/C=C/c2n[nH]c3ccc(NS(=O)(=O)c4cc(F)cc(F)c4)cc23)cn1 [Example D5217, (E)-3,5-difluoro-N-(3-(2-(1-methyl-1H-pyrazol-4-yl)vinyl)-1H-indazol-5-yl)benzenesulfonamide] | 125 | 171 | 90.9
17 | CN1CCN(C(=O)/C=C/c2n[nH]c3ccc(NCc4cc(F)cc(F)c4)cc23)CC1 [DYX-226, (E)-3-(5-((3,5-difluorobenzyl)amino)-1H-indazol-3-yl)-1-(4-methylpiperazin-1-yl)prop-2-en-1-one] | 34.4 | 48.1 | 48.7

Row | Compound | IC50 (BaF3-ETV6-NTRK3) [nM] | IC50 (BaF3-ETV6-NTRK2) [nM] | IC50 (BaF3-CD74-NTRK1) [nM]
18 | CCNC(=O)/C=C/c1n[nH]c2ccc(NCc3cc(F)cc(F)c3)cc12 [DYX-236, (E)-3-(5-((3,5-difluorobenzyl)amino)-1H-indazol-3-yl)-N-ethylacrylamide] | 196 | 116 | 112
19 | C(=C\c1n[nH]c2ccc(NCc3ccccc3)cc12)/c1ccccn1 [DYX-314, (E)-N-benzyl-3-(2-(pyridin-2-yl)vinyl)-1H-indazol-5-amine] | 149 | 165 | 154
20 | C[C@@H](Nc1ccc2[nH]nc(/C=C/c3cnn(C)c3)c2c1)c1cc(F)cc(F)c1 [DYX-346, (R,E)-N-(1-(3,5-difluorophenyl)ethyl)-3-(2-(1-methyl-1H-pyrazol-4-yl)vinyl)-1H-indazol-5-amine] | 3.1 | 9.5 | 6.5
21 | O=C(/C=C/c1n[nH]c2ccc(NCc3cc(F)cc(F)c3)cc12)N1CC[C@@H](O)C1 [DYX-227, (R,E)-3-(5-((3,5-difluorobenzyl)amino)-1H-indazol-3-yl)-1-(3-hydroxylpyrrolidin-1-yl)prop-2-en-1-one] | 33.2 | 56 | 37.5
22 | CNC(=O)/C=C/c1n[nH]c2ccc(NCc3cc(F)cc(F)c3)cc12 [DYX-235, (E)-3-(5-((3,5-difluorobenzyl)amino)-1H-indazol-3-yl)-N-methylacrylamide] | 34.2 | 32.6 | 20
23 | Fc1cc(F)cc(Cc2ccc3[nH]nc(/C=C/c4ccccc4C(F)(F)F)c3c2)c1 [Example D01F11] | 25.6 | 159 | 12.9
24 | C[C@@H](Nc1ccc2[nH]nc(/C=C/c3cnn(CCO)c3)c2c1)c1cc(F)cc(F)c1 [DYX-327, (R,E)-2-(4-(2-(5-((1-(3,5-difluorophenyl)ethyl)amino)-1H-indazol-3-yl)vinyl)-1H-pyrazol-1-yl)-1-ethanol] | 5.4 | 17.6 | 1.4
25 | O=S(=O)(c1cc(F)cc(F)c1)c1ccc2[nH]nc(/C=C/c3ccncc3)c2c1 [Example E01F02, (E)-5-((3,5-difluorophenyl)sulfonyl)-3-(2-(pyridin-4-yl)vinyl)-1H-indazole] | 40.7 | 133 | 18.9
26 | COc1cc(F)cc(CNc2ccc3[nH]nc(/C=C/c4ccccn4)c3c2)c1 [DYX-403, (E)-N-(3-fluoro-5-methoxybenzyl)-3-(2-(pyridin-2-yl)vinyl)-1H-indazol-5-amine] | 180 | 137 | 52.6
27 | FC(F)(F)c1cccc(Cc2ccc3[nH]nc(C#Cc4ccccn4)c3c2)c1 [DYX-138Q] | > 10000 | > 10000 | > 10000
28 | CC(C)NC(=O)/C=C/c1n[nH]c2ccc(NCc3cc(F)cc(F)c3)cc12 [DYX-231, (E)-3-(5-((3,5-difluorobenzyl)amino)-1H-indazol-3-yl)-N-isopropylacrylamide] | 547 | 780 | 619
29 | CN(C)C(=O)/C=C/c1n[nH]c2ccc(NCc3cc(F)cc(F)c3)cc12 [DYX-220, (E)-3-(5-((3,5-difluorobenzyl)amino)-1H-indazol-3-yl)-N,N-dimethylacrylamide] | 22.6 | 31.7 | 21.2
30 | Fc1cncc(CNc2ccc3[nH]nc(/C=C/c4ccccn4)c3c2)c1 [DYX-419, (E)-N-((5-fluoropyridin-3-yl)methyl)-3-(2-(pyridin-2-yl)vinyl)-1H-indazol-5-amine] | 4 | 11.9 | 2.4
31 | C[C@@H](Nc1cc2c(/C=C/c3ccccn3)n[nH]c2cn1)c1cc(F)cc(F)c1 [DYX-340, (R,E)-N-(1-(3,5-difluorophenyl)ethyl)-3-(2-(pyridin-2-yl)vinyl)-1H-pyrazolo[3,4-c]pyridin-5-amine] | 68 | 160 | 18.7
32 | Fc1ccc(Cl)c(CNc2ccc3[nH]nc(/C=C/c4ccccn4)c3c2)c1 [DYX-416, (E)-N-(2-chloro-5-fluorobenzyl)-3-(2-(pyridin-2-yl)vinyl)-1H-indazol-5-amine] | 34.3 | 88.7 | 21
33 | N#Cc1cccc(Cc2ccc3[nH]nc(C#Cc4ccccn4)c3c2)c1 [DYX-136Q, 3-((3-(pyridin-2-ylethynyl)-1H-indazol-5-yl)methyl)benzonitrile] | 2090 | 3100 | 4600
